Assay results: the NIST ThermoML archive (doi:10.1021/je7005055)

What was measured:
[1] = 298.15 K; 101.33 kPa; Liquid
[2] = xn = mol fraction of the nth substance listed; conditions: 298.15 K, 101 kPa, Liquid

CN1CCOCC1 [N-methylmorpholine]
Conditions | mass density [kg/m3]
[1] | 914.06

CN1CCOCC1 [N-methylmorpholine] + CCCCCCCCO
[2]
Conditions | mass density [kg/m3]
x1 = 0.0461 | 823.88
x1 = 0.1101 | 827.55
x1 = 0.1862 | 832.09
x1 = 0.2381 | 835.33
x1 = 0.2848 | 838.58
x1 = 0.3484 | 843.06
x1 = 0.4029 | 846.99
x1 = 0.4899 | 853.86
x1 = 0.5121 | 855.92
x1 = 0.6012 | 863.81
x1 = 0.6547 | 869.5
x1 = 0.7213 | 875.97
x1 = 0.7831 | 883.26
x1 = 0.8353 | 889.72
x1 = 0.8958 | 897.82
x1 = 0.9541 | 905.92
x1 = 0.9792 | 909.72

CN1CCOCC1 [N-methylmorpholine] + CCCCCCO
[2]
Conditions | mass density [kg/m3]
x1 = 0.0459 | 818.34
x1 = 0.1098 | 823.37
x1 = 0.1852 | 829.49
x1 = 0.2377 | 833.69
x1 = 0.2855 | 837.76
x1 = 0.3495 | 843.34
x1 = 0.4034 | 848.09
x1 = 0.4887 | 855.97
x1 = 0.5129 | 858.26
x1 = 0.5998 | 866.75
x1 = 0.6583 | 872.76
x1 = 0.7174 | 879.14
x1 = 0.7844 | 886.51
x1 = 0.8341 | 892.31
x1 = 0.8964 | 899.75
x1 = 0.9538 | 907.13
x1 = 0.9784 | 910.69

CN1CCOCC1 [N-methylmorpholine] + CCCCCO
[2]
Conditions | mass density [kg/m3]
x1 = 0.0487 | 813.72
x1 = 0.1129 | 820.02
x1 = 0.1766 | 826.08
x1 = 0.2412 | 832.41
x1 = 0.2801 | 836.23
x1 = 0.3998 | 847.87
x1 = 0.4612 | 854.03
x1 = 0.5826 | 866.38
x1 = 0.6444 | 872.93
x1 = 0.7267 | 881.91
x1 = 0.7801 | 887.89
x1 = 0.8226 | 892.69
x1 = 0.8811 | 899.57
x1 = 0.9428 | 907.1
x1 = 0.9854 | 912.11

CN1CCOCC1 [N-methylmorpholine] + CCCCO
[2]
Conditions | mass density [kg/m3]
x1 = 0.0455 | 811.49
x1 = 0.1089 | 818.95
x1 = 0.1675 | 825.55
x1 = 0.2399 | 833.8
x1 = 0.2811 | 838.33
x1 = 0.3494 | 845.7
x1 = 0.3985 | 850.99
x1 = 0.4533 | 856.71
x1 = 0.5285 | 864.54
x1 = 0.6444 | 876.67
x1 = 0.7198 | 885.45
x1 = 0.7865 | 891.47
x1 = 0.8237 | 895.31
x1 = 0.8843 | 901.73
x1 = 0.9411 | 907.87
x1 = 0.9801 | 912

CN1CCOCC1 [N-methylmorpholine] + CCCO
[2]
Conditions | mass density [kg/m3]
x1 = 0.0237 | 803.87
x1 = 0.1003 | 816.55
x1 = 0.1657 | 826.67
x1 = 0.2336 | 836.52
x1 = 0.2812 | 843.01
x1 = 0.3458 | 851.12
x1 = 0.3988 | 857.14
x1 = 0.4476 | 861.99
x1 = 0.5784 | 874.68
x1 = 0.6347 | 879.93
x1 = 0.7195 | 888.06
x1 = 0.7684 | 892.76
x1 = 0.8327 | 898.56
x1 = 0.8674 | 901.93
x1 = 0.9443 | 908.83
x1 = 0.9878 | 912.75

CN1CCOCC1 [N-methylmorpholine] + CCO
[2]
Conditions | mass density [kg/m3]
x1 = 0.0511 | 797.55
x1 = 0.1166 | 812.41
x1 = 0.1795 | 825.38
x1 = 0.2438 | 837.23
x1 = 0.2795 | 843.43
x1 = 0.3532 | 854.69
x1 = 0.4021 | 861.24
x1 = 0.4573 | 867.56
x1 = 0.4982 | 871.73
x1 = 0.5342 | 875.35
x1 = 0.5832 | 879.41
x1 = 0.6432 | 884.36
x1 = 0.7234 | 890.96
x1 = 0.7786 | 895.53
x1 = 0.8216 | 899.13
x1 = 0.8794 | 904.05
x1 = 0.9432 | 909.42
x1 = 0.9832 | 912.63

CCCCO [butan-1-ol]
Conditions | mass density [kg/m3]
[1] | 805.92

CCO [ethanol]
Conditions | mass density [kg/m3]
[1] | 784.94

CCCCCCO [hexan-1-ol]
Conditions | mass density [kg/m3]
[1] | 814.95

CCCCCCCCO [octan-1-ol]
Conditions | mass density [kg/m3]
[1] | 821.65

CCCCCO [pentan-1-ol]
Conditions | mass density [kg/m3]
[1] | 810.83

CCCO [propan-1-ol]
Conditions | mass density [kg/m3]
[1] | 799.52
